From patent US20150306169A1, “METHOD AND COMPOSITIONS FOR SYNCHRONIZING TIME OF INSEMINATION IN GILTS” (JBS UNITED ANIMAL HEALTH II LLC, priority 2012, published 2015)

How the values were obtained:
Format in all cases: in vivo, swine
LH = assay: Serum LH surge after triptorelin gel (Example 5)
Description: A catheter was inserted non-surgically into the jugular vein (Kraeling et al. 1982) of a subpopulation of gilts in each treatment group (vehicle gel, n=8; 100 mcg triptorelin, n=6; 200 mcg triptorelin, n=7 and 400 mcg triptorelin, n=6). Ten mL blood samples were collected every 15 minutes for one hour prior to treatment, immediately following treatment (0) and at 0.5, 1, 2, 4, 6, 12, 18, 24, 36 and 48 hours after treatment. Blood samples were maintained at 4° C. until centrifuged at 800 x g for 15 minutes within 12 hours of collection. The resulting serum was stored frozen until assayed for LH using validated procedures for pig serum (Kesner et al., 1987 and Kraeling et al., 1982). Onset, duration, and magnitude of the LH surge were analyzed. The LH data were analyzed with the General Linear Models procedure of SAS. Differences between treatments were tested on least squares means estimates using the T test at P<0.05. Onset of the LH surge is when serum LH concentration is greater than or equal to two standard deviations of the mean of the pre-treatment serum LH concentrations. Duration of the LH surge is the period between onset and when serum LH concentration is again less than or equal to two standard deviations of the mean of the pre-treatment serum LH concentrations. Magnitude of the LH surge is the maximum serum LH concentration reached during the LH surge.

gilts [1] = assay: Estrus observation, triptorelin gel dose study (Example 5); conditions: raw average, PTK 2-07
Description: (§1) All gilts were individually fed MATRIX® as a top-dress for 14 or 15 days at the recommended rate of 15 mg/gilt/day. Gilts were withdrawn from MATRIX® feeding (last top-dress in the morning on Day 0) and allocated to each of the following treatments. Controls were vehicle gel treated (vehicle gel without triptorelin) at 120 (+/−2) hours following MATRIX® withdrawal (last top dress). The other gilts were given 100, 200 or 400 mcg triptorelin as the acetate in a methylcellulose gel formulation 120 (+/−2) hours following MATRIX® withdrawal. The four treatments were: • 1. Vehicle gel (VG): vehicle gel without triptorelin at 120 (+/−2) hours after MATRIX® withdrawal. • 2. TG 100: 100 mcg (2 mL 50 mcg/mL) triptorelin gel at 120 (+/−2) hours after MATRIX® withdrawal. • 3. TG 200: 200 mcg (2 mL 100 mcg/mL) triptorelin gel at 120 (+/−2) hours after MATRIX® withdrawal. • 4. TG 400: 400 mcg (2 mL 200 mcg/mL) triptorelin gel at 120 (+/−2) hours after MATRIX® withdrawal.
For post-treatment estrus detection, gilts were housed in individual pens. Boars were housed in separate rooms, and/or at least 12 m away and downwind. To elicit signs of estrus, a mature boar was walked slowly in the alley in front of the gilts' crates, exposing each test gilt to visual, auditory and olfactory signals from the boar for up to 5 minutes. […]

gilts [2] = assay: Ovulation monitoring by transrectal ultrasonography after triptorelin gel at 96, 120 or 144 h post-MATRIX (Example 1); conditions: raw average, PTK 1-07 (rep 3), 200 mcg T at 120 h post-MATRIX
Description: All gilts were individually fed MATRIX® as a top-dress for 14 days at the recommended rate of 15 mg/gilt/day. Gilts were withdrawn from MATRIX® feeding (last top feed in the morning on Day 0) and allotted to treatments. Controls were treated with a 1.2% methylcellulose gel formulation without triptorelin at 96 hours following MATRIX® withdrawal (last top-dress). The remaining gilts received 200 mcg triptorelin, as the acetate, in a 1.2% methylcellulose gel formulation intravaginally at various times after MATRIX® withdrawal. The four treatments were: 1) vehicle gel (VG) treatment at 96 hours after MATRIX® withdrawal, 2) triptorelin gel (TG) treatment at 96 hours after MATRIX® withdrawal, 3) TG treatment at 120 hours after MATRIX® withdrawal and 4) TG treatment at 144 hours after MATRIX® withdrawal. All gilts were monitored for their estrous and ovulatory status as described below. Gilts included in replicate 1 were selected from terminal line commercial production gilts located in grow/finish barns. Sexual maturity, as indicated by one or more estrous periods, was not verified prior to the start of MATRIX® feeding. Gilts included in replicate 2 were selected from a maternal line gilt population. Sexual maturity was verified by at least one estrous period verified and recorded prior to starting MATRIX® feeding.
The ovulatory status of all gilts was monitored by transrectal ultrasonography. For replicate one, ovulation was monitored two times on Day 5, then three times a day from Day 6 to Day 8. For replicate two, ovulation was monitored three times a day from Day 5 to Day 8. An Aloka 500 ultrasound machine with a 7.5 MHz linear array transducer attached to a fixed-angle PVC stabilizing rod to facilitate insertion into the rectum was used for this purpose. The transducer and PVC rod were coated with a gynecological lubricant and gently inserted into the rectum until the ovaries were visualized, one at a time. The diameters of the three largest follicles were recorded (to the nearest 0.1 mm) at each scanning. A gilt was declared to have ovulated when the number of large follicles (≧6.5 mm) fell to less than 3.
(§2) A single 2 mL dose of triptorelin gel or vehicle gel was deposited within approximately 1-2 cm posterior to the cervix with a catheter similar to those used for artificial insemination. The dose was delivered using a standard multi-dose applicator attached to the catheter. A new disposable sheath, which surrounds the catheter, was used for each gilt.
Data were analyzed using the Mixed Models procedures of SAS. Models included main effects of time of treatment following the last feeding of MATRIX®, replicate, and treatment by replicate interaction. Differences between treatments were tested on least squares means estimates using the T test at P <0.05. Data for analysis were tested for assumptions of data normality.

gilts [3] = assay: Estrus observation after triptorelin gel (Example 1); conditions: raw average, PTK 1-07 (rep 3); 200 mcg T at 120 h post-MATRIX
Description: All gilts were individually fed MATRIX® as a top-dress for 14 days at the recommended rate of 15 mg/gilt/day. Gilts were withdrawn from MATRIX® feeding (last top feed in the morning on Day 0) and allotted to treatments. Controls were treated with a 1.2% methylcellulose gel formulation without triptorelin at 96 hours following MATRIX® withdrawal (last top-dress). The remaining gilts received 200 mcg triptorelin, as the acetate, in a 1.2% methylcellulose gel formulation intravaginally at various times after MATRIX® withdrawal. The four treatments were: 1) vehicle gel (VG) treatment at 96 hours after MATRIX® withdrawal, 2) triptorelin gel (TG) treatment at 96 hours after MATRIX® withdrawal, 3) TG treatment at 120 hours after MATRIX® withdrawal and 4) TG treatment at 144 hours after MATRIX® withdrawal. All gilts were monitored for their estrous and ovulatory status as described below. Gilts included in replicate 1 were selected from terminal line commercial production gilts located in grow/finish barns. Sexual maturity, as indicated by one or more estrous periods, was not verified prior to the start of MATRIX® feeding. Gilts included in replicate 2 were selected from a maternal line gilt population. Sexual maturity was verified by at least one estrous period verified and recorded prior to starting MATRIX® feeding. […]
Data were analyzed using the Mixed Models procedures of SAS. […]

gilts [4] = assay: Ovulation monitoring by transrectal ultrasonography, triptorelin gel dose 100-400 mcg at 120 h post-MATRIX (Example 5); conditions: for % of Sows Ovulating: raw average, PTK 2-07
Description: as §1
Ovulation was monitored twice on Day 5 (8 hours and 16 hours post-treatment) and every 8 hours on Day 6 and Day 7 or until ovulation was confirmed or 176 hours following last MATRIX® feeding. The ovulatory status of all gilts was monitored by transrectal ultrasonography. An Aloka 500 ultrasound machine is used for this purpose, with a 7.5 MHz linear array transducer attached to a fixed-angle PVC stabilizing rod to facilitate insertion into the rectum. The transducer and PVC rod are coated with a gynecological lubricant and gently inserted into the rectum until the ovaries can be visualized, one at a time. The diameters of the three largest follicles were recorded (to the nearest 0.1 mm) at each scanning. A gilt was declared to have ovulated when the number of large follicles (≧6.5 mm) fell to less than 3.
as §2

[5] = 200 mcg T in gel at 120 h post-MATRIX, relative to time of treatment, one gilt with surge

CC(C)C[C@H](NC(=O)[C@@H](Cc1c[nH]c2ccccc12)NC(=O)[C@H](Cc1ccc(O)cc1)NC(=O)[C@H](CO)NC(=O)[C@H](Cc1c[nH]c2ccccc12)NC(=O)[C@H](Cc1c[nH]cn1)NC(=O)[C@@H]1CCC(=O)N1)C(=O)N[C@@H](CCCNC(=N)N)C(=O)N1CCC[C@H]1C(=O)NCC(N)=O [T, pGlu-His-Trp-Ser-Tyr-D-Trp-Leu-Arg-Pro-Gly-NH2]
Gilts, which displayed a LH surge (LH; 100 mcg T in gel at 120 h post-MATRIX, number of n = 6 catheterized gilts): 4
Onset of LH surge (LH; 100 mcg T in gel at 120 h post-MATRIX, relative to time of treatment, LS mean ± SE): 4 ± 3
Gilts, which displayed a LH surge (LH; 200 mcg T in gel at 120 h post-MATRIX, number of n = 7 catheterized gilts): 1
Duration of LH surge (LH; 200 mcg T in gel at 120 h post-MATRIX, one gilt with surge): 18
Onset of LH surge (LH; [5]): 0.5
Time of maximum LH conc. (LH; [5]): 4 h
Gilts, which displayed a LH surge (LH; 400 mcg T in gel at 120 h post-MATRIX, number of n = 6 catheterized gilts): 5
Onset of LH surge (LH; 400 mcg T in gel at 120 h post-MATRIX, relative to time of treatment, LS mean ± SE): 4 ± 4
Estrous Expression (%) (gilts [1]; 100 mcg T at 120 h post-MATRIX): 75.0%
Estrous Expression (%) (gilts [1]; 200 mcg T at 120 h post-MATRIX): 81.0%
% of Sows Ovulating (gilts [2]; 128 h post-MATRIX (8 h post-T)): 0.0%
% of Sows Ovulating (gilts [2]; 136 h post-MATRIX (16 h post-T)): 10.0%
% of Sows Ovulating (gilts [2]; 144 h post-MATRIX (24 h post-T)): 30.0%
% of Sows Ovulating (gilts [2]; 152 h post-MATRIX (32 h post-T)): 70.0%
% of Sows Ovulating (gilts [2]; 160 h post-MATRIX (40 h post-T)): 80.0%
% of Sows Ovulating (gilts [2]; 168 h post-MATRIX (48 h post-T)): 90.0%
% of Sows Ovulating (gilts [2]; 176 h post-MATRIX (56 h post-T)): 100.0%
Estrous Expression (%) (gilts [3]): 100.0%
Percentage ovulated by 48 hours (gilts [4]; 100 mcg T in gel at 120 h post-MATRIX, catheterized subpopulation n = 6): 100%
Percentage ovulated by 48 hours (gilts [4]; 200 mcg T in gel at 120 h post-MATRIX, catheterized subpopulation n = 7): 100%
Percentage ovulated by 48 hours (gilts [4]; 400 mcg T in gel at 120 h post-MATRIX, catheterized subpopulation n = 6): 100%
% of Sows Ovulating (gilts [4]; 100 mcg T at 120 h post-MATRIX, 128 h post-MATRIX (8 h post-T)): 0.0%
% of Sows Ovulating (gilts [4]; 100 mcg T at 120 h post-MATRIX, 136 h post-MATRIX (16 h post-T)): 5.0%
% of Sows Ovulating (gilts [4]; 100 mcg T at 120 h post-MATRIX, 144 h post-MATRIX (24 h post-T)): 20.0%
% of Sows Ovulating (gilts [4]; 100 mcg T at 120 h post-MATRIX, 152 h post-MATRIX (32 h post-T)): 30.0%
% of Sows Ovulating (gilts [4]; 100 mcg T at 120 h post-MATRIX, 160 h post-MATRIX (40 h post-T)): 60.0%
% of Sows Ovulating (gilts [4]; 100 mcg T at 120 h post-MATRIX, 168 h post-MATRIX (48 h post-T)): 95.0%
% of Sows Ovulating (gilts [4]; 100 mcg T at 120 h post-MATRIX, 176 h post-MATRIX (56 h post-T)): 100.0%
% of Sows Ovulating (gilts [4]; 200 mcg T at 120 h post-MATRIX, 128 h post-MATRIX (8 h post-T)): 0.0%
% of Sows Ovulating (gilts [4]; 200 mcg T at 120 h post-MATRIX, 136 h post-MATRIX (16 h post-T)): 0.0%
% of Sows Ovulating (gilts [4]; 400 mcg T at 120 h post-MATRIX, 128 h post-MATRIX (8 h post-T)): 4.5%
% of Sows Ovulating (gilts [4]; 400 mcg T at 120 h post-MATRIX, 136 h post-MATRIX (16 h post-T)): 9.1%
% of Sows Ovulating (gilts [4]; 400 mcg T at 120 h post-MATRIX, 168 h post-MATRIX (48 h post-T)): 100.0%
% of Sows Ovulating (gilts [4]; 400 mcg T at 120 h post-MATRIX, 176 h post-MATRIX (56 h post-T)): 100.0%
